Experimental data published in the NIST ThermoML archive (doi:10.1021/je800193a).

Test: excess molar enthalpy (molar enthalpy of mixing); xn = mol fraction of the nth substance listed
Details: 101.3 kPa, Liquid, Flow calorimetry

CC(=O)c1ccccc1 [acetophenone] + C1CCCCC1
excess molar enthalpy [kcal/mol]
Details	298.2 K	313.2 K	328.2 K	338.2 K	348.2 K
x1 = 0.1004	0.18	0.19	0.193	0.195	0.196
x1 = 0.1999	0.264	0.285	0.295	0.302	0.304
x1 = 0.2999	0.305	0.336	0.353	0.362	0.364
x1 = 0.3499	0.317	0.35	0.368	0.377	0.379
x1 = 0.4002	0.323	0.356	0.374	0.385	0.388
x1 = 0.4497	0.323	0.357	0.375	0.386	0.387
x1 = 0.4996	0.32	0.352	0.37	0.378	0.382
x1 = 0.5498	0.312	0.343	0.359	0.367	0.371
x1 = 0.6005	0.299	0.327	0.341	0.349	0.353
x1 = 0.6503	0.282	0.307	0.319	0.326	0.329
x1 = 0.7004	0.261	0.28	0.289	0.296	0.299
x1 = 0.8005	0.2	0.209	0.213	0.218	0.221
x1 = 0.8995	0.114	0.117	0.118	0.121	0.122

CC(=O)c1ccccc1 [acetophenone] + CC(C)CO
excess molar enthalpy [kcal/mol]
Details	298.2 K	313.2 K	328.2 K	338.2 K	348.2 K
x1 = 0.1005	0.166	0.192	0.219	0.223	0.225
x1 = 0.201	0.263	0.312	0.356	0.367	0.369
x1 = 0.301	0.327	0.39	0.449	0.46	0.462
x1 = 0.3512	0.346	0.414	0.476	0.488	0.491
x1 = 0.4014	0.361	0.432	0.494	0.507	0.509
x1 = 0.4516	0.371	0.443	0.504	0.516	0.519
x1 = 0.5017	0.375	0.446	0.505	0.516	0.52
x1 = 0.5518	0.373	0.443	0.498	0.508	0.51
x1 = 0.6016	0.366	0.432	0.482	0.489	0.492
x1 = 0.6513	0.354	0.415	0.456	0.463	0.467
x1 = 0.7008	0.335	0.389	0.423	0.426	0.428
x1 = 0.8016	0.271	0.305	0.324	0.325	0.329
x1 = 0.901	0.164	0.177	0.183	0.185	0.187

CC(=O)c1ccccc1 [acetophenone] + CCCCCC
excess molar enthalpy [kcal/mol]
Details	298.2 K	313.2 K	328.2 K
x1 = 0.0997	0.169	0.173	0.175
x1 = 0.2	0.263	0.277	0.285
x1 = 0.2994	0.306	0.329	0.342
x1 = 0.3503	0.317	0.343	0.357
x1 = 0.4006	0.321	0.349	0.365
x1 = 0.4503	0.321	0.35	0.367
x1 = 0.4995	0.316	0.346	0.363
x1 = 0.5494	0.308	0.336	0.353
x1 = 0.5999	0.295	0.319	0.337
x1 = 0.6499	0.278	0.293	0.313
x1 = 0.7005	0.257	0.265	0.277
x1 = 0.8	0.2	0.203	0.207
x1 = 0.8995	0.113	0.115	0.117

CC(=O)c1ccccc1 [acetophenone] + CCCCCCC
excess molar enthalpy [kcal/mol]
Details	298.2 K	313.2 K	328.2 K	338.2 K	348.2 K
x1 = 0.0999	0.173	0.177	0.183	0.184	0.184
x1 = 0.2002	0.271	0.285	0.298	0.301	0.302
x1 = 0.3005	0.313	0.341	0.361	0.369	0.369
x1 = 0.3498	0.323	0.354	0.378	0.388	0.389
x1 = 0.4007	0.326	0.362	0.388	0.398	0.4
x1 = 0.4504	0.327	0.362	0.391	0.402	0.404
x1 = 0.5003	0.322	0.358	0.387	0.399	0.401
x1 = 0.5504	0.313	0.348	0.378	0.39	0.39
x1 = 0.6006	0.301	0.334	0.362	0.373	0.374
x1 = 0.6496	0.285	0.316	0.342	0.352	0.354
x1 = 0.6998	0.264	0.291	0.315	0.323	0.326
x1 = 0.8001	0.208	0.224	0.241	0.245	0.246
x1 = 0.8999	0.121	0.125	0.135	0.136	0.138

CC(=O)c1ccccc1 [acetophenone] + CCCCCO
excess molar enthalpy [kcal/mol]
Details	298.2 K	313.2 K	328.2 K	338.2 K	348.2 K
x1 = 0.1003	0.151	0.174	0.186	0.19	0.192
x1 = 0.1998	0.24	0.283	0.311	0.324	0.328
x1 = 0.2998	0.298	0.356	0.394	0.412	0.417
x1 = 0.3497	0.316	0.378	0.421	0.44	0.447
x1 = 0.4001	0.33	0.396	0.441	0.461	0.468
x1 = 0.4496	0.338	0.407	0.453	0.473	0.48
x1 = 0.4994	0.343	0.411	0.457	0.477	0.484
x1 = 0.5497	0.342	0.41	0.453	0.473	0.478
x1 = 0.6004	0.336	0.402	0.442	0.459	0.464
x1 = 0.6501	0.325	0.386	0.422	0.438	0.441
x1 = 0.7003	0.307	0.363	0.393	0.408	0.41
x1 = 0.8004	0.252	0.291	0.306	0.315	0.318
x1 = 0.8995	0.156	0.174	0.177	0.182	0.184

CC(=O)c1ccccc1 [acetophenone] + CCCCO
excess molar enthalpy [kcal/mol]
Details	298.2 K	313.2 K	328.2 K	338.2 K	348.2 K
x1 = 0.0996	0.149	0.172	0.187	0.193	0.197
x1 = 0.2005	0.241	0.283	0.314	0.326	0.335
x1 = 0.3001	0.298	0.357	0.394	0.412	0.423
x1 = 0.3501	0.317	0.379	0.422	0.44	0.452
x1 = 0.4002	0.331	0.396	0.441	0.46	0.472
x1 = 0.4504	0.34	0.406	0.452	0.471	0.483
x1 = 0.5005	0.344	0.41	0.456	0.473	0.485
x1 = 0.5506	0.343	0.407	0.452	0.469	0.479
x1 = 0.6006	0.337	0.399	0.44	0.455	0.463
x1 = 0.6504	0.326	0.382	0.419	0.432	0.44
x1 = 0.7001	0.309	0.358	0.391	0.4	0.407
x1 = 0.8	0.252	0.285	0.305	0.311	0.316
x1 = 0.9001	0.154	0.17	0.176	0.18	0.184

CC(=O)c1ccccc1 [acetophenone] + CCOC(C)=O
excess molar enthalpy [kcal/mol]
Details	298.2 K	313.2 K	328.2 K
x1 = 0.1	-0.00292	-0.00284	-0.0028
x1 = 0.2004	-0.00509	-0.00495	-0.0049
x1 = 0.2999	-0.0066	-0.00636	-0.00626
x1 = 0.3501	-0.00707	-0.00679	-0.00674
x1 = 0.4002	-0.00739	-0.00703	-0.00693
x1 = 0.4503	-0.00755	-0.00715	-0.00698
x1 = 0.5002	-0.00755	-0.0071	-0.00688
x1 = 0.5997	-0.00717	-0.00667	-0.00638
x1 = 0.7005	-0.00629	-0.00574	-0.0054
x1 = 0.8004	-0.00483	-0.0043	-0.00392
x1 = 0.9003	-0.00246	-0.00234	-0.00196

CC(=O)c1ccccc1 [acetophenone] + O
excess molar enthalpy [kcal/mol]
Details	298.2 K	313.2 K	328.2 K	338.2 K	348.2 K
x1 = 0.1002	0.0169	0.0217	0.0313	0.0342	0.0399
x1 = 0.1997	0.033	0.0424	0.0592	0.0608	0.0772
x1 = 0.3001	0.0492	0.0636	0.0876	0.095	0.115
x1 = 0.3991	0.0652	0.0846	0.116	0.124	0.153
x1 = 0.5003	0.0816	0.106	0.145	0.156	0.192
x1 = 0.5991	0.0975	0.127	0.173	0.188	0.23
x1 = 0.6986	0.113	0.148	0.201	0.221	0.269
x1 = 0.7987	0.129	0.168	0.229	0.253	0.308
x1 = 0.8515	0.138	0.175	0.24	0.245	0.274
x1 = 0.8967	0.141	0.16	0.189	0.192	0.204
x1 = 0.9534	0.0718	0.0793	0.0926	0.0937	0.1
